Measured values: US10434083B2, “Transmammary delivery of cyclooxygenase-2 inhibitors for analgesia in neonates” (Iowa State University Research Foundation, Inc., priority 2018, dated 2019)

Test: in vivo
Parameters: species or system swine
Settings: for AUMC / AUMClast / AUCINF / AUC_Exp / AUC∞ extrpl / Lamda_HL / Lamda_Z / λZ / T1/2λZ: both; for Lamda_HL / Lamda_Z / λZ / T1/2λZ: swine
Method: Blood samples for firocoxib determination were collected from the sows and three piglets/litter (two male and one female piglet at each time point) at 0, 2, 4, 6, 8, 12, 24, 48, 72, 96, and 120 h post-drug injection to the sow. The blood sample from each sow (8 mL/sample) was collected via the left or right jugular vein using a 25.4-mm, 16-gauge hypodermic needle (Air-Tite Products, Virginia Beach, Va.) attached to a 12-mL Luer-Lok syringe (TycoHealth Care, Mansfield, Mass.). During blood collection, a pig snare was used for manual restraint of each sow in her crate. The blood samples (2 mL/sample) from the piglets were collected from the left or right cranial vena cava using a 3.8-cm, 20-gauge hypodermic needle (TycoHealth Care, Mansfield, Mass.) attached to a 3-mL syringe (TycoHealth Care, Mansfield, Mass.). Physical restraint of the piglet was achieved by placing the animal in a supine position during sample collection. Blood samples were transferred to 6-mL evacuated tubes that contained lithium heparin (Vacuette plasma tubes, Greiner Bio-One, Monroe, N.C.) that were stored on ice for up to 2 h before processing. The blood samples were centrifuged for 10 min at 1,500×g. The plasma was then removed, placed in cryovials, and frozen at −80° C. until analysis.
On Day 0, the pharmacokinetic portion of the study commenced. The test article was administered intramuscularly in the right neck to sows. Blood samples for Firocoxib determination were collected by jugular venipuncture from sows and 3 piglets/litter (2 male and one female at each timepoint) at 0, 2, 4, 6, 8, 12, 24, 48, 72, 96 and 120 hours after drug injection in the sow.
Plasma concentrations of firocoxib were determined using high-pressure liquid chromatography (Agilent 1100 Pump, Column Compartment and Autosampler, Agilent Technologies, Santa Clara, Calif., USA) with mass spectrometry detection (LTQ Ion Trap, Thermo Scientific, San Jose, Calif., USA). Briefly, frozen samples or standards were thawed at room temperature and rigorously vortexed once completely thawed. […] Plasma samples, plasma spikes, plasma quality control samples, and blanks (100 μL) were then protein-precipitated in 1.5-mL microcentrifuge tubes with 400 μL acetonitrile/0.1% formic acid. A d6-firocoxib internal standard was incorporated into the acetonitrile precipitating agent at a concentration of 200 ng/mL. The samples were vortexed for 5 seconds after addition of the acetonitrile and centrifuged for 20 min at 3,773×g to sediment the protein pellet. Following centrifugation, the supernatant was poured into cell culture tubes and evaporated to dryness in a Turbovap concentration evaporator at 48° C. The tube contents were reconstituted with 150 μL 25% acetonitrile and transferred to autosampler vials equipped with 300-μL glass inserts. The samples were centrifuged at 770×g before liquid chromatography-mass spectroscopy (LC-MS) analysis.
Twelve calibration spikes were prepared in blank porcine plasma in the concentration range of 1-5,000 ng/mL for the samples from the sows. The samples from the piglets were analyzed using a narrower range of calibration spikes of 1-500 ng/mL. A linear (1/X) fit was used for the piglet plasma samples and the narrower 1-500 ng/mL concentration range. A quadratic (1/X) fit was used for the sow plasma samples and the 1-5,000 ng/mL concentration range.
Plasma and tissue firocoxib concentrations were determined using high-pressure liquid chromatography (Agilent 1100 Pump, Column Compartment and Autosampler, Agilent Technologies, Santa Clara, Calif.) with mass spectrometry detection (LTQ Ion Trap, Thermo Scientific, San Jose, Calif.). A 25-μL injection volume was used for the LC-MS analysis. The mobile phases were A (0.1% formic acid in water) and B (0.1% formic acid in acetonitrile), at flow rates of 0.275 mL/min. […]

Work on `CC1(C)OC(=O)C(OCC2CC2)=C1c1ccc(S(C)(=O)=O)cc1` [firocoxib] yielded an AUC(0-inf) (both sexes, pig, 0.5 mg/kg) of 690 ng·h/mL, an AUC(0-t) (both sexes, pig, 0.5 mg/kg, Piglet AUClast) of 635 ng·h/mL and an AUC(0-inf) (both sexes, pig, 1 mg/kg) of 3180 ng·h/mL. The AUC(0-t) (both sexes, pig, 1 mg/kg, Piglet AUClast) was 2470 ng·h/mL, the AUC(0-inf) (both sexes, pig, 1.5 mg/kg) was 4620 ng·h/mL and the AUC(0-t) (both sexes, pig, 1.5 mg/kg, Piglet AUClast) was 3900 ng·h/mL. The AUC(0-inf) (both sexes, pig, 2 mg/kg) was 3650 ng·h/mL, the AUC(0-t) (both sexes, pig, 2 mg/kg, Piglet AUClast) was 3220 ng·h/mL and the half-life (both sexes, pig, im) was 30.9 to 48.7 h. It also gave an AUC(0-inf) (both sexes, pig, im, 0.5 mg/kg) of 690 ng·h/mL, a Cmax (both sexes, pig, im, 0.5 mg/kg) of 9.53 ng/mL and a Tmax (both sexes, pig, im, 0.5 mg/kg) of 24 h. For the same compound, the AUC(0-t) (both sexes, pig, im, 0.5 mg/kg, AUC 0-24 h) was 176 ng·h/mL, the AUC(0-t) (both sexes, pig, im, 0.5 mg/kg, AUC0-24h) was 176 ng·h/mL and the AUC(0-t) (both sexes, pig, im, 0.5 mg/kg, AUC0-last) was 635 ng·h/mL. For the same compound, the AUC(0-t) (both sexes, pig, im, 0.5 mg/kg, AUClast) was 635 ng·h/mL, the MRT last (both sexes, pig, im, 0.5 mg/kg, MRT0-last) was 44.8 h and the MRT last (both sexes, pig, im, 0.5 mg/kg, MRT last) was 44.8 h. It also gave an AUC(0-inf) (both sexes, pig, im, 1 mg/kg) of 3180 ng·h/mL, a Cmax (both sexes, pig, im, 1 mg/kg) of 31 ng/mL and a Tmax (both sexes, pig, im, 1 mg/kg) of 24 h. For the same compound, the AUC(0-t) (both sexes, pig, im, 1 mg/kg, AUC 0-24 h) was 407 ng·h/mL, the AUC(0-t) (both sexes, pig, im, 1 mg/kg, AUC0-24h) was 407 ng·h/mL and the AUC(0-t) (both sexes, pig, im, 1 mg/kg, AUC0-last) was 2470 ng·h/mL. It also gave an AUC(0-t) (both sexes, pig, im, 1 mg/kg, AUClast) of 2470 ng·h/mL, an MRT last (both sexes, pig, im, 1 mg/kg, MRT0-last) of 55.4 h and an MRT last (both sexes, pig, im, 1 mg/kg, MRT last) of 55.4 h. The AUC(0-inf) (both sexes, pig, im, 1.5 mg/kg) was 4620 ng·h/mL, the Cmax (both sexes, pig, im, 1.5 mg/kg) was 53.3 ng/mL and the Tmax (both sexes, pig, im, 1.5 mg/kg) was 24 h. The AUC(0-t) (both sexes, pig, im, 1.5 mg/kg, AUC 0-24 h) was 662 ng·h/mL, the AUC(0-t) (both sexes, pig, im, 1.5 mg/kg, AUC0-24h) was 662 ng·h/mL and the AUC(0-t) (both sexes, pig, im, 1.5 mg/kg, AUC0-last) was 3900 ng·h/mL. It also gave an AUC(0-t) (both sexes, pig, im, 1.5 mg/kg, AUClast) of 3900 ng·h/mL, an MRT last (both sexes, pig, im, 1.5 mg/kg, MRT0-last) of 54.4 h and an MRT last (both sexes, pig, im, 1.5 mg/kg, MRT last) of 52.4 h. It also gave an AUC(0-inf) (both sexes, pig, im, 2 mg/kg) of 3650 ng·h/mL, a Cmax (both sexes, pig, im, 2 mg/kg) of 44 ng/mL and a Tmax (both sexes, pig, im, 2 mg/kg) of 24 h. For the same compound, the AUC(0-t) (both sexes, pig, im, 2 mg/kg, AUC 0-24 h) was 609 ng·h/mL, the AUC(0-t) (both sexes, pig, im, 2 mg/kg, AUC0-24h) was 609 ng·h/mL and the AUC(0-t) (both sexes, pig, im, 2 mg/kg, AUC0-last) was 3220 ng·h/mL. For the same compound, the AUC(0-t) (both sexes, pig, im, 2 mg/kg, AUClast) was 3220 ng·h/mL, the MRT last (both sexes, pig, im, 2 mg/kg, MRT0-last) was 51.5 h and the MRT last (both sexes, pig, im, 2 mg/kg, MRT last) was 51.5 h. The AUMC (pig, 0.5 mg/kg) was 28433.00 h^2 × ng/mL, the AUMClast (pig, 0.5 mg/kg) was 28,443.00 h * h * ng/mL and the AUMC (pig, 1 mg/kg) was 136805.00 h^2 × ng/mL. The AUMClast (pig, 1 mg/kg) was 136,805.00 h * h * ng/mL, the AUMC (pig, 1.5 mg/kg) was 204246.00 h^2 × ng/mL and the AUMClast (pig, 1.5 mg/kg) was 204,246.00 h * h * ng/mL. The AUMC (pig, 2 mg/kg) was 166016.00 h^2 × ng/mL, the AUMClast (pig, 2 mg/kg) was 166,016.00 h * h * ng/mL and the AUCINF (pig, im, 0.5 mg/kg) was 690.47 ng·h/mL. The AUC_Exp (pig, im, 0.5 mg/kg) was 0.08%, the “AUC∞ extrpl” value (pig, im, 0.5 mg/kg) was 0.08% and the AUCINF (pig, im, 1 mg/kg) was 3178.00 ng·h/mL. The AUC_Exp (pig, im, 1 mg/kg) was 0.22%, the “AUC∞ extrpl” value (pig, im, 1 mg/kg) was 0.22% and the AUCINF (pig, im, 1.5 mg/kg) was 4615.17 ng·h/mL. The AUC_Exp (pig, im, 1.5 mg/kg) was 0.16%, the “AUC∞ extrpl” value (pig, im, 1.5 mg/kg) was 0.16% and the AUCINF (pig, im, 2 mg/kg) was 3652.32 ng·h/mL. The AUC_Exp (pig, im, 2 mg/kg) was 0.12%, the “AUC∞ extrpl” value (pig, im, 2 mg/kg) was 0.12% and the Lamda_HL (0.5 mg/kg) was 30.86 h. The Lamda_Z (0.5 mg/kg) was 0.02 h⁻¹, the λZ (0.5 mg/kg) was 0.02 h⁻¹ and the Lamda_HL (1 mg/kg) was 48.71 h. The Lamda_Z (1 mg/kg) was 0.01 h⁻¹, the λZ (1 mg/kg) was 0.01 h⁻¹ and the Lamda_HL (1.5 mg/kg) was 37.91 h. The Lamda_Z (1.5 mg/kg) was 0.02 h⁻¹, the λZ (1.5 mg/kg) was 0.05 h⁻¹ and the Lamda_HL (2 mg/kg) was 32.42 h. The Lamda_Z (2 mg/kg) was 0.02 h⁻¹, the λZ (2 mg/kg) was 0.02 h⁻¹ and the T1/2λZ (im, 0.5 mg/kg) was 30.86 h. The T1/2λZ (im, 1 mg/kg) was 48.71 h, the T1/2λZ (im, 1.5 mg/kg) was 37.91 h and the T1/2λZ (im, 2 mg/kg) was 32.42 h.
